Measurements published in US10590088B2, “4-(benzimidazol-2-ylamino)benzamide derivatives and methods of synthesis thereof” (TRANSLATIONAL DRUG DEVELOPMENT, LLC, priority 2009, dated 2020).

Tests used:
SKOV3 cells = test: CellTiter-Blue cell viability assay, single agent, 72 hour treatment, SKOV3; type: cell-based; conditions: Homo sapiens, SK-OV-3
Description: (§1) Cell viability in the presence of varying concentrations of the above listed compounds at different time points was used to assess cytotoxicity and the effect of the compounds on cell proliferation.
(§2) Cell viability was measured by the CellTiter-Blue® cell viability assay Promega (Madison, Wis.). This procedure measures the conversion of the indicator dye (resazurin) to resorufin, an indicator of cell viability. Following treatment, growth media was removed and cells were incubated with 20 μl of CellTiter-Blue® Reagent and growth media for 1-4 hours at 37° C. Fluorescence values were measured at 535/590 nm using a Beckman-Coulter DTX-880 microplate reader.
(§3) Cells were grown to 70% confluency, trypsinized, counted, and seeded in 96 well flat-bottom plates at a final concentration of 2.5×10^3-5×10^3 cells/well (Day 0). Cells were allowed to incubate in growth media for 24 hours to allow for maximum adhesion. Treatment with the test agents or standard agents began on Day 1 and continued for 72 hours. At the 72 hour timepoint, treatment containing media was removed. Viable cell numbers are quantified by the CellTiter-Blue® cell viability assay as described above. Experiments were repeated at least twice with the same concentrations to determine growth inhibitory activity. Results from these studies were used to calculate an IC50 value (concentration of drug that inhibits cell growth by 50 percent of control) for each compound.
(§4) For single agent and combination studies, data from each experiment was collected and expressed as % Cell Growth using the following calculation: % Cell Growth=(ftest/fvehicle)×100
(§5) Where ftest is the fluorescence of the tested sample, and fvehicle is the fluorescence of the vehicle in which the drug is dissolved. Dose response graphs and IC50 values were generated using Prism 4 software (GraphPad) using the following equation: […]
(§6) Where X is the logarithm of concentration and Y is the response. Y starts at the Bottom and goes to Top with a sigmoid shape.

[1] = tested on: A2780 human ovarian cells xenograft; test: In vivo efficacy in human ovarian tumor xenograft model; conditions: female Ncr nude mice
Description: FIG. 1 depicts in vivo efficacy studies of compound #4 (N-hydroxy-4-(1-(2-methoxyethyl)-1H-benzo[d]imidazol-2-ylamino)benzamide) in A2780 xenograft models.
In vivo efficacy of the disclosed compound was tested through a human ovarian tumor xenograft model. Female Ncr nude mice were inoculated with 1×10^7 A2780 human ovarian cells suspended in a mixture of 50% Matrigel and 50% tissue culture media in a total volume of 100 μl. Four days following inoculation, the mice were pair-matched into four groups of 7-8 mice per group at an average tumor weight of 157 mg per group. Group 1 (G1) was treated with vehicle only daily for 14 days. Group 3 (G3) was treated with Compound ID #4 (T062) at 100 mg/kg daily for 14 days. Group 5 (G5) was treated with Doxil at 3 mg/kg on Day 1 only. Group 6 (G6) was treated with Compound ID #4 (T062) at 50 mg/kg (daily for 14 days) plus Doxil at 3 mg/kg on Day 1 only. Group 7 (G7) was treated with Compound ID #4 (T062) at 100 mg/kg (daily for 14 days) plus Doxil at 3 mg/kg on Day 1 only. Vehicle and Compound ID #4 were administered orally via oral gavage while Doxil was administered intravenously via tail injection. Body weights and tumor measurements were collected twice weekly. Tumor width and length were measured in millimeters and converted to tumor weight (in milligrams) using the formula […]=tumor weight (mg.).

A2780 cells = test: CellTiter-Blue cell viability assay, single agent, 72 hour treatment, A2780; type: cell-based; conditions: Homo sapiens
Description: as §1, §2, §3, §4, §5, §6

Structure (SMILES)	IC50 (SKOV3 cells) [µM]	IC50 (A2780 cells) [µM]	In vivo efficacy (tumor weight) versus Doxil as a single agent ([1]; Group 6: Compound ID #4 50 mg/kg oral daily for 14 days plus Doxil 3 mg/kg i.v. on Day 1 only)	In vivo efficacy (tumor weight) versus Doxil as a single agent ([1]; Group 7: Compound ID #4 100 mg/kg oral daily for 14 days plus Doxil 3 mg/kg i.v. on Day 1 only)
COCCn1c(Nc2ccc(C(=O)NO)cc2)nc2ccccc21 [ID 4, N-hydroxy-4-(1-(2-methoxyethyl)-1H-benzo[d]imidazol-2-ylamino)benzamide]	–	–	improved efficacy over Group 5	improved efficacy over Group 5
COCCCn1c(Nc2ccc(C(=O)NO)cc2)nc2ccccc21 [ID 9, N-hydroxy-4-(1-(3-methoxypropyl)-1H-benzo[d]imidazol-2-ylamino)benzamide]	–	1.9	–	–
O=C(NO)c1ccc(Nc2nc3ccccc3n2CCO)cc1 [ID 11, N-hydroxy-4-(1-(2-hydroxyethyl)-1H-benzo[d]imidazol-2-ylamino)benzamide]	34	40	–	–
COCCn1c(Nc2ccc(C(=O)NO)cc2)nc2cc(-c3cncnc3)ccc21 [ID 15, N-hydroxy-4-(1-(2-methoxyethyl)-5-(pyrimidin-5-yl)-1H-benzo[d]imidazol-2-ylamino)benzamide]	48	16	–	–
CN(C)CCn1c(Nc2ccc(C(=O)NO)cc2)nc2cc(Br)ccc21 [ID 17, 4-(5-bromo-1-(2-(dimethylamino)ethyl)-1H-benzo[d]imidazol-2-ylamino)-N-hydroxybenzamide]	8.2	–	–	–
CC(C)n1c(Nc2ccc(C(=O)NO)cc2)nc2cc(-c3cncnc3)ccc21 [ID 18, N-hydroxy-4-(1-isopropyl-5-(pyrimidin-5-yl)-1H-benzo[d]imidazol-2-ylamino)benzamide]	21	–	–	–
COCCn1c(Nc2ccc(C(=O)NO)cc2)nc2ccc(F)cc21 [ID 21, 4-(6-fluoro-1-(2-methoxyethyl)-1H-benzo[d]imidazol-2-ylamino)-N-hydroxybenzamide]	17.7	12.1	–	–
COCCn1c(Nc2ccc(C(=O)NO)cc2)nc2c(F)cccc21 [ID 22, 4-(4-fluoro-1-(2-methoxyethyl)-1H-benzo[d]imidazol-2-ylamino)-N-hydroxybenzamide]	17.6	12.1	–	–
COCc1ccc2c(c1)nc(Nc1ccc(C(=O)NO)cc1)n2C(C)C [ID 23, N-hydroxy-4-(1-isopropyl-5-(methoxymethyl)-1H-benzo[d]imidazol-2-ylamino)benzamide]	16	22	–	–

Second part, led by results:

IC50 (SKOV3 cells) [µM]	IC50 (A2780 cells) [µM]	Structure (SMILES)	In vivo efficacy (tumor weight) versus Doxil as a single agent ([1]; Group 6: Compound ID #4 50 mg/kg oral daily for 14 days plus Doxil 3 mg/kg i.v. on Day 1 only)	In vivo efficacy (tumor weight) versus Doxil as a single agent ([1]; Group 7: Compound ID #4 100 mg/kg oral daily for 14 days plus Doxil 3 mg/kg i.v. on Day 1 only)
4.8	–	CC(C)n1c(Nc2ccc(C(=O)Nc3ccccc3N)cc2)nc2ccccc21 [ID 1, N-(2-aminophenyl)-4-(1-isopropyl-1H-benzo[d]imidazol-2-ylamino)benzamide]	–	–
6.9	4.1	COCCn1c(Nc2ccc(C(=O)NO)cc2)nc2cc(Br)ccc21 [ID 10, 4-(5-bromo-1-(2-methoxyethyl)-1H-benzo[d]imidazol-2-ylamino)-N-hydroxybenzamide]	–	–
0.7	1.4	COCCn1c(Nc2ccc(C(=O)NO)cc2)nc2cc(F)ccc21 [ID 12, 4-(5-fluoro-1-(2-methoxyethyl)-1H-benzo[d]imidazol-2-ylamino)-N-hydroxybenzamide]	–	–
1.9	5.1	CC(C)OCCn1c(Nc2ccc(C(=O)NO)cc2)nc2ccccc21 [ID 13, N-hydroxy-4-(1-(2-isopropoxyethyl)-1H-benzo[d]imidazol-2-ylamino)benzamide]	–	–
0.3	1.1	COCCn1c(Nc2ccc(C(=O)NO)cc2)nc2cc(-c3cccc(F)c3)ccc21 [ID 14, 4-(5-(3-fluorophenyl)-1-(2-methoxyethyl)-1H-benzo[d]imidazol-2-ylamino)-N-hydroxybenzamide]	–	–
4.3	15	COCCn1c(Nc2ccc(C(=O)NO)cc2)nc2cc(C3CC3)ccc21 [ID 16, 4-(5-cyclopropyl-1-(2-methoxyethyl)-1H-benzo[d]imidazol-2-ylamino)-N-hydroxybenzamide]	–	–
8.1	–	CC(C)n1c(Nc2ccc(C(=O)NO)cc2)nc2cc(-c3cccnc3)ccc21 [ID 19, N-hydroxy-4-(1-isopropyl-5-(pyridin-3-yl)-1H-benzo[d]imidazol-2-ylamino)benzamide]	–	–
5.8	–	COCCn1c(Nc2ccc(C(=O)Nc3ccccc3N)cc2)nc2ccccc21 [ID 20, N-(2-aminophenyl)-4-(1-(2-methoxyethyl)-1H-benzo[d]imidazol-2-ylamino)benzamide]	–	–
